Here are results for four compounds from patent US12139520B2 (priority 2020, dated 2024).

For one assay, the target named is T1, hAMY3 receptor (Homo sapiens, UniProt O60896+P30988).
T1 sequence (P30988 25-474): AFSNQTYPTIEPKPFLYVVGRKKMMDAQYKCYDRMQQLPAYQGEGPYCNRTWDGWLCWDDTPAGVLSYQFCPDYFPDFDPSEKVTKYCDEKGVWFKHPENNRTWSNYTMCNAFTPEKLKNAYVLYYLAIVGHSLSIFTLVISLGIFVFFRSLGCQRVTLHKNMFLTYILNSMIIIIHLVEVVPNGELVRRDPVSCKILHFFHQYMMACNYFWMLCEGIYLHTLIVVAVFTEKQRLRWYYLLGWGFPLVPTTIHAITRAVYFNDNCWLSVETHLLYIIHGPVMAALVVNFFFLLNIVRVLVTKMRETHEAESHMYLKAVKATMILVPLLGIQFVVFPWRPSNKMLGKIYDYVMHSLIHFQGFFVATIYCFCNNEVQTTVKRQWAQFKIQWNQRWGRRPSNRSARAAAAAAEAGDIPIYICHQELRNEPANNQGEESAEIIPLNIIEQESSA
T1 sequence (O60896 24-148 partner): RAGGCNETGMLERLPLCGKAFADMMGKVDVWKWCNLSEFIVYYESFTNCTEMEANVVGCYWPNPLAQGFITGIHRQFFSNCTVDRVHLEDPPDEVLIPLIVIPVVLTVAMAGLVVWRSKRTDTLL
As to the kind of experiment: cAMP assay for in vitro receptor activation, hAMY3-R. Format: cell-based. Conditions: cAMP assay, hAMY3 receptor; read-out: hAMY3R EC50. The method, boiled down: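 Monoclonal cell line stably overexpressing human AMY3 receptor, 2000 cells/well in DPBS with 0.05% casein and 0.5 mM IBMX. Stimulated 30 min at room temperature with graded compound doses, human amylin as positive control. cAMP accumulation read by TR-FRET after one hour.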

Another assay has as its target hAM1 receptor (Homo sapiens, UniProt O60895+Q16602). Nature of the assay: cAMP assay for in vitro receptor activation, hAM1-R. Format: cell-based. The note with it: cAMP assay, hAM1 receptor; read-out: hAM1R EC50. The method in brief:
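cAMP accumulation was measured in a monoclonal cell line stably overexpressing the hAM1 receptor. Frozen aliquots were thawed and plated at 8000 cells/well in DPBS containing 0.05% casein and 0.5 mM IBMX.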

Assay [1] in a line: Acute food intake study in lean rats. Format: in vivo, rat. The note with it: single SC injection, lean healthy rats; for Average cumulative food intake: up to 48 h, P < 0.001 vs vehicle. How it is done:
General Protocols for Acute Food Intake Study
The effect on cumulative food intake was measured in male Sprague Dawley rats (6 weeks of age, Taconic, Denmark) following a single dose using a fully automated food intake monitoring system (HM-2; MBRose ApS, Faaborg, Denmark), allowing for advanced synchronous real-time monitoring of food intake behaviour of individual animals. The animals were housed in groups of 4 in a light-, temperature-, and humidity-controlled room (a 12/12 LD cycle, lights on at 02:00 AM; 22±2° C.; 50% relative humidity). The mice had ad libitum access to regular chow diet (Altromin 1324, Brogaarden A/S, Lynge, Denmark) and domestic quality tap water. Mice arrived at day 7, and a minimum of 5 days of habituation to the system was allowed prior to beginning of the study. During these days, the animals were handled daily to accustom them to the experimental paradigm. On the day of dosing, the animals were randomized into groups according to body weight. Animals were fasted for four hours prior to dosing. Animals were dosed SC 30 or 180 min prior to lights out, and food intake data were collected automatically for a total of 48 h post-dosing with automatic food recordings every 5 min.

Numbered stars: 1 amine (or outer) side, 2 acyl side, 3 side chain; on linkers, the order of the positions; unused ones are H or OH. Bridge positions count the residues as written; N and C are the ends. Square brackets hold non-standard residues; d marks the D form. Side chains are listed from the residue outwards. Peptide text beside a SMILES is read from it. * marks the point of attachment. C20 diacid = O=C(O)CCCCCCCCCCCCCCCCCCC(=O)*; γGlu = O=C(O)[C@H](CCC(=O)[*:2])N[*:1]; Hyp = O=C(O)[C@@H]1C[C@@H](O)CN1; AEEA = NCCOCCOCC(=O)O

Chain of hAM1 receptor (Q16602 23-461): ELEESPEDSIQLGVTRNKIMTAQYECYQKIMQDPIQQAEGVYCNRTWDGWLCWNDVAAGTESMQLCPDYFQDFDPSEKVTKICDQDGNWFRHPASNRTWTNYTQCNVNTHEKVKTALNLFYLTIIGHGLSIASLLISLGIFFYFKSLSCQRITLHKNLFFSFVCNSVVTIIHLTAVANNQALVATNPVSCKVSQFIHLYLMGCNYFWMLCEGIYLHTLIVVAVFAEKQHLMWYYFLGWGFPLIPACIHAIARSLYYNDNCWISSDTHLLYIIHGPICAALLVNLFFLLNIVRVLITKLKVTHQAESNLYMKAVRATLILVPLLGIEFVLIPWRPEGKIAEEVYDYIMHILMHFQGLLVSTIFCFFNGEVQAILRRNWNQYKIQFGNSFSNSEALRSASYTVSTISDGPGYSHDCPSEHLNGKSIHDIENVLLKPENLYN
Chain of hAM1 receptor (O60895 43-175 partner): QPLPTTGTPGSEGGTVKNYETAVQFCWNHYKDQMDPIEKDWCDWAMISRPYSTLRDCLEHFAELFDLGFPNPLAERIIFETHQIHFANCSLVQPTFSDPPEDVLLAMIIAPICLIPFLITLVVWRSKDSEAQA

In the case of `CC[C@H](C)[C@H](NC(=O)[C@H](CCC(N)=O)NC(=O)[C@H](CCC(=O)O)NC(=O)[C@H](C)NC(=O)[C@H](CC(C)C)NC(=O)[C@H](CCCNC(=N)N)NC(=O)[C@H](CCC(N)=O)NC(=O)[C@@H](NC(=O)[C@@H](NC(=O)[C@@H]1CSSC[C@H](NC(=O)[C@@H](N)CCCCN)C(=O)N[C@@H](CCCCNC(=O)COCCOCCNC(=O)COCCOCCNC(=O)CC[C@H](NC(=O)CCCCCCCCCCCCCCCCCCC(=O)O)C(=O)O)C(=O)N[C@@H]([C@@H](C)O)C(=O)N[C@@H](C)C(=O)N[C@@H]([C@@H](C)O)C(=O)N1)[C@@H](C)O)C(C)C)C(=O)N[C@@H](Cc1ccc(O)cc1)C(=O)N[C@@H](CCC(N)=O)C(=O)N[C@@H](Cc1ccccc1)C(=O)N[C@H](C(=O)N[C@@H](CC(=O)O)C(=O)N[C@@H](CCCCN)C(=O)N[C@@H](CC(=O)O)C(=O)N[C@@H](CCCCN)C(=O)N[C@@H](CC(=O)O)C(=O)N[C@@H](CC(N)=O)C(=O)N[C@H](C(=O)N[C@@H](C)C(=O)N1CCC[C@H]1C(=O)N1CCC[C@H]1C(=O)N[C@H](C(=O)N[C@@H](CC(N)=O)C(=O)N[C@H](C(=O)NCC(=O)N[C@@H](CO)C(=O)N[C@@H](CC(N)=O)C(=O)NCC(=O)N1C[C@H](O)C[C@H]1C(N)=O)C(C)C)[C@@H](C)O)C(C)C)[C@@H](C)O` [compound 36] (H-KCK([AEEA-AEEA-γGlu-C20 diacid])TATCTVQRLAEQIYQFTDKDKDNVAPPTNVGSNG[Hyp]-NH2; disulfide 2-7; N-terminus assumed), the concentration giving a half-maximal response (EC50) was 0.009 nM on hAMY3 receptor and more than 5000 nM on hAM1 receptor. Further, the “cumulative food intake, % to vehicle” value in assay [1] (10 nmol/kg) is listed as 55.61%. In addition, in assay [1] (10 nmol/kg), the “Average cumulative food intake” value amounted to 23.3 g.
For `CC[C@H](C)[C@H](NC(=O)[C@H](CCC(N)=O)NC(=O)[C@H](Cc1c[nH]cn1)NC(=O)[C@H](C)NC(=O)[C@H](CC(C)C)NC(=O)[C@H](CCCNC(=N)N)NC(=O)[C@H](CCC(N)=O)NC(=O)[C@@H](NC(=O)[C@@H](NC(=O)[C@@H]1CSSC[C@H](NC(=O)[C@H](CCCCN)NC(=O)CC[C@H](NC(=O)CCCCCCCCCCCCCCCCCCC(=O)O)C(=O)O)C(=O)N[C@@H](CC(N)=O)C(=O)N[C@@H]([C@@H](C)O)C(=O)N[C@@H](C)C(=O)N[C@@H]([C@@H](C)O)C(=O)N1)[C@@H](C)O)C(C)C)C(=O)N[C@@H](Cc1ccc(O)cc1)C(=O)N[C@@H](CCC(N)=O)C(=O)N[C@@H](Cc1ccccc1)C(=O)N[C@H](C(=O)N[C@@H](CC(=O)O)C(=O)N[C@@H](CCCCN)C(=O)N[C@@H](CC(=O)O)C(=O)N[C@@H](CCCCN)C(=O)N[C@@H](CC(=O)O)C(=O)N[C@@H](CC(N)=O)C(=O)N[C@H](C(=O)N[C@@H](C)C(=O)N1CCC[C@H]1C(=O)N1CCC[C@H]1C(=O)N[C@H](C(=O)N[C@@H](CCCCN)C(=O)N[C@H](C(=O)NCC(=O)N[C@@H](CO)C(=O)N[C@@H](CC(N)=O)C(=O)NCC(=O)N1C[C@H](O)C[C@H]1C(N)=O)C(C)C)[C@@H](C)O)C(C)C)[C@@H](C)O` [compound 60] ({C20 diacid-γGlu}-KCNTATCTVQRLAHQIYQFTDKDKDNVAPPTKVGSNG[Hyp]-NH2; disulfide 2-7), the values for the EC50 at hAMY3 receptor and on hAM1 receptor were 0.012 nM and more than 5000 nM, respectively. Also, the “cumulative food intake, % to vehicle” value in assay [1] (10 nmol/kg) was 69.59%; in assay [1] (30 nmol/kg), 45.72%. For the same compound, the “Average cumulative food intake” value in assay [1] (10 nmol/kg) was 30.9 g; in assay [1] (30 nmol/kg), 20.3 g.
Take `CC[C@H](C)[C@H](NC(=O)[C@H](CCC(N)=O)NC(=O)[C@H](Cc1c[nH]cn1)NC(=O)[C@H](C)NC(=O)[C@H](CC(C)C)NC(=O)[C@H](CCCNC(=N)N)NC(=O)[C@H](CCC(N)=O)NC(=O)[C@@H](NC(=O)[C@@H](NC(=O)[C@@H]1CSSC[C@H](NC(=O)[C@H](CCCCN)NC(=O)CC[C@H](NC(=O)CCCCCCCCCCCCCCCCCCC(=O)O)C(=O)O)C(=O)N[C@@H](CC(N)=O)C(=O)N[C@@H]([C@@H](C)O)C(=O)N[C@@H](C)C(=O)N[C@@H]([C@@H](C)O)C(=O)N1)[C@@H](C)O)C(C)C)C(=O)N[C@H](C(=O)N[C@@H](CCC(N)=O)C(=O)N[C@@H](Cc1ccccc1)C(=O)N[C@H](C(=O)N[C@@H](CC(=O)O)C(=O)N[C@@H](CCCCN)C(=O)N[C@@H](CC(=O)O)C(=O)N[C@@H](CCCCN)C(=O)N[C@@H](CC(=O)O)C(=O)N[C@@H](CC(N)=O)C(=O)N[C@H](C(=O)N[C@@H](C)C(=O)N1CCC[C@H]1C(=O)N1CCC[C@H]1C(=O)N[C@H](C(=O)N[C@@H](CC(N)=O)C(=O)N[C@H](C(=O)NCC(=O)N[C@@H](CO)C(=O)N[C@@H](CC(N)=O)C(=O)NCC(=O)N1C[C@H](O)C[C@H]1C(N)=O)C(C)C)[C@@H](C)O)C(C)C)[C@@H](C)O)C(C)C` [compound 85] ({C20 diacid-γGlu}-KCNTATCTVQRLAHQIVQFTDKDKDNVAPPTNVGSNG[Hyp]-NH2; disulfide 2-7): the EC50 on hAMY3 receptor was 0.015 nM; on hAM1 receptor it was more than 5000 nM. Also, the “cumulative food intake, % to vehicle” value in assay [1] (10 nmol/kg) was found to be 45.70%. Further, the “Average cumulative food intake” value in assay [1] (10 nmol/kg) came to 18.6 g.
As to `CC[C@H](C)[C@H](NC(=O)[C@H](C)NC(=O)CNC(=O)[C@H](Cc1ccccc1)NC(=O)[C@H](CC(N)=O)NC(=O)[C@H](CC(N)=O)NC(=O)[C@H](CO)NC(=O)[C@H](CO)NC(=O)[C@H](Cc1c[nH]cn1)NC(=O)[C@@H](NC(=O)[C@H](CC(C)C)NC(=O)[C@H](Cc1ccccc1)NC(=O)[C@H](CC(N)=O)NC(=O)[C@H](C)NC(=O)[C@H](CC(C)C)NC(=O)[C@H](CCCNC(=N)N)NC(=O)[C@H](CCC(N)=O)NC(=O)[C@@H](NC(=O)[C@H](C)NC(=O)[C@@H]1CSSC[C@H](NC(=O)[C@@H](N)CCCCN)C(=O)N[C@@H](CC(N)=O)C(=O)N[C@@H]([C@@H](C)O)C(=O)N[C@@H](C)C(=O)N[C@@H]([C@@H](C)O)C(=O)N1)[C@@H](C)O)C(C)C)C(=O)N[C@@H](C)C(=O)N1CCC[C@H]1C(=O)N[C@@H](CO)C(=O)N[C@H](C(=O)N[C@@H](CCCCN)C(=O)N[C@H](C(=O)NCC(=O)N[C@@H](CO)C(=O)N[C@@H](CC(N)=O)C(=O)NCC(=O)N[C@@H](Cc1ccc(O)cc1)C(N)=O)C(C)C)[C@@H](C)O` [compound 93] (H-KCNTATCATQRLANFLVHSSNNFGAIAPSTKVGSNGY-NH2; disulfide 2-7; N-terminus assumed), the half-maximal effective concentration (EC50) on hAMY3 receptor was found to be 0.016 nM. Besides, on hAM1 receptor, the EC50 was more than 5000 nM. In assay [1] (10 nmol/kg), the “cumulative food intake, % to vehicle” value was 46.93% and the “Average cumulative food intake” value was 19.1 g.
